Reference: ChEMBL document CHEMBL3400015, “Tertiary amides of Salinomycin: A new group of antibacterial agents against Bacillus anthracis and methicillin-resistant Staphylococcus epidermidis” (Bioorg Med Chem Lett, 2015)
≈ marks a conversion by molar mass, not a printed value.

Tests used:
[1] = test system: Staphylococcus epidermidis; assay: Antimicrobial activity against methicillin-resistant Staphylococcus epidermidis isolate 454/11 after 18 hrs by twofold serial broth dilution method; format: functional; details: isolate 454/11, 18 h
Escherichia coli [2] = assay: Bactericidal activity against Escherichia coli NCTC 8196 after 24 hrs; format: functional; details: NCTC 8196, 24 h, read-out: MBC99.9
[3] = test system: Staphylococcus epidermidis; assay: Bactericidal activity against methicillin-resistant Staphylococcus epidermidis isolate 457/11 after 24 hrs; format: functional; details: isolate 457/11, 24 h, read-out: MBC99.9
[4] = test system: Staphylococcus epidermidis; assay: Bactericidal activity against methicillin-resistant Staphylococcus epidermidis isolate 454/11 after 24 hrs; format: functional; details: isolate 454/11, 24 h, read-out: MBC99.9
Pseudomonas aeruginosa [5] = assay: Antimicrobial activity against Pseudomonas aeruginosa ATCC 27853 after 18 hrs by twofold serial broth dilution method; format: functional; details: ATCC 27853, 18 h
[6] = test system: Staphylococcus epidermidis; assay: Antimicrobial activity against Staphylococcus epidermidis ATCC 12228 after 18 hrs by twofold serial broth dilution method; format: functional; details: ATCC 12228, 18 h
Bacillus anthracis = assay: Antimicrobial activity against Bacillus anthracis 34F2 after 18 hrs by twofold serial broth dilution method; format: functional; details: 34F2, 18 h
Staphylococcus aureus [7] = assay: Bactericidal activity against Staphylococcus aureus NCTC 4163 after 24 hrs; format: functional; details: NCTC 4163, 24 h, read-out: MBC99.9
Staphylococcus aureus [8] = assay: Bactericidal activity against Staphylococcus aureus ATCC 6538 after 24 hrs; format: functional; details: ATCC 6538, 24 h, read-out: MBC99.9
Escherichia coli [9] = assay: Bactericidal activity against Escherichia coli ATCC 10538 after 24 hrs; format: functional; details: ATCC 10538, 24 h, read-out: MBC99.9
[10] = test system: Staphylococcus epidermidis; assay: Antimicrobial activity against methicillin-resistant Staphylococcus epidermidis isolate 422/10 after 18 hrs by twofold serial broth dilution method; format: functional; details: isolate 422/10, 18 h
Pseudomonas aeruginosa [11] = assay: Bactericidal activity against Pseudomonas aeruginosa NCTC 6749 after 24 hrs; format: functional; details: NCTC 6749, 24 h, read-out: MBC99.9
[12] = test system: Staphylococcus epidermidis; assay: Bactericidal activity against methicillin-resistant Staphylococcus epidermidis isolate 460/11 after 24 hrs; format: functional; details: isolate 460/11, 24 h, read-out: MBC99.9
Staphylococcus aureus [13] = assay: Antimicrobial activity against Staphylococcus aureus ATCC 25923 after 18 hrs by twofold serial broth dilution method; format: functional; details: ATCC 25923, 18 h
Pseudomonas aeruginosa [14] = assay: Bactericidal activity against Pseudomonas aeruginosa ATCC 15442 after 24 hrs; format: functional; details: ATCC 15442, 24 h, read-out: MBC99.9
Bacillus subtilis [15] = assay: Genotoxicity in rec-negative Bacillus subtilis M45 at 2 ug/9 mm disc after 24 hrs by disc diffusion method; format: toxicity, organism-based
[16] = test system: Staphylococcus epidermidis; assay: Bactericidal activity against methicillin-resistant Staphylococcus epidermidis isolate 469/11 after 24 hrs; format: functional; details: isolate 469/11, 24 h, read-out: MBC99.9
[17] = test system: Staphylococcus epidermidis; assay: Bactericidal activity against methicillin-resistant Staphylococcus epidermidis isolate 424/10 after 24 hrs; format: functional; details: isolate 424/10, 24 h, read-out: MBC99.9
Staphylococcus aureus [18] = assay: Bactericidal activity against Staphylococcus aureus ATCC 25923 after 24 hrs; format: functional; details: ATCC 25923, 24 h, read-out: MBC99.9
[19] = test system: Staphylococcus epidermidis; assay: Bactericidal activity against Staphylococcus epidermidis ATCC 35984 after 24 hrs; format: functional; details: ATCC 35984, 24 h, read-out: MBC99.9
[20] = test system: Staphylococcus epidermidis; assay: Bactericidal activity against methicillin-resistant Staphylococcus epidermidis isolate 405/10 after 24 hrs; format: functional; details: isolate 405/10, 24 h, read-out: MBC99.9
[21] = test system: Staphylococcus epidermidis; assay: Antimicrobial activity against methicillin-resistant Staphylococcus epidermidis isolate 424/10 after 18 hrs by twofold serial broth dilution method; format: functional; details: isolate 424/10, 18 h
[22] = test system: Staphylococcus epidermidis; assay: Antimicrobial activity against methicillin-resistant Staphylococcus epidermidis isolate 459/11 after 18 hrs by twofold serial broth dilution method; format: functional; details: isolate 459/11, 18 h
[23] = test system: Staphylococcus epidermidis; assay: Antimicrobial activity against methicillin-resistant Staphylococcus epidermidis isolate 469/11 after 18 hrs by twofold serial broth dilution method; format: functional; details: isolate 469/11, 18 h
Escherichia coli [24] = assay: Antimicrobial activity against Escherichia coli NCTC 8196 after 18 hrs by twofold serial broth dilution method; format: functional; details: NCTC 8196, 18 h
Pseudomonas aeruginosa [25] = assay: Antimicrobial activity against Pseudomonas aeruginosa NCTC 6749 after 18 hrs by twofold serial broth dilution method; format: functional; details: NCTC 6749, 18 h
[26] = test system: Staphylococcus epidermidis; assay: Antimicrobial activity against methicillin-resistant Staphylococcus epidermidis isolate 409/10 after 18 hrs by twofold serial broth dilution method; format: functional; details: isolate 409/10, 18 h
[27] = test system: Staphylococcus epidermidis; assay: Bactericidal activity against methicillin-resistant Staphylococcus epidermidis isolate 461/11 after 24 hrs; format: functional; details: isolate 461/11, 24 h, read-out: MBC99.9
Escherichia coli [28] = assay: Antimicrobial activity against Escherichia coli ATCC 25922 after 18 hrs by twofold serial broth dilution method; format: functional; details: ATCC 25922, 18 h
[29] = test system: Staphylococcus epidermidis; assay: Bactericidal activity against methicillin-resistant Staphylococcus epidermidis isolate 409/10 after 24 hrs; format: functional; details: isolate 409/10, 24 h, read-out: MBC99.9
[30] = test system: Staphylococcus epidermidis; assay: Antimicrobial activity against methicillin-resistant Staphylococcus epidermidis isolate 458/11 after 18 hrs by twofold serial broth dilution method; format: functional; details: isolate 458/11, 18 h
Staphylococcus aureus [31] = assay: Antimicrobial activity against Staphylococcus aureus NCTC 4163 after 18 hrs by twofold serial broth dilution method; format: functional; details: NCTC 4163, 18 h
[32] = test system: Staphylococcus epidermidis; assay: Antimicrobial activity against methicillin-resistant Staphylococcus epidermidis isolate 461/11 after 18 hrs by twofold serial broth dilution method; format: functional; details: isolate 461/11, 18 h
[33] = test system: Staphylococcus epidermidis; assay: Bactericidal activity against methicillin-resistant Staphylococcus epidermidis isolate 470/11 after 24 hrs; format: functional; details: isolate 470/11, 24 h, read-out: MBC99.9
[34] = test system: Staphylococcus epidermidis; assay: Bactericidal activity against methicillin-resistant Staphylococcus epidermidis isolate 407/10 after 24 hrs; format: functional; details: isolate 407/10, 24 h, read-out: MBC99.9
[35] = test system: Staphylococcus epidermidis; assay: Antimicrobial activity against methicillin-resistant Staphylococcus epidermidis isolate 470/11 after 18 hrs by twofold serial broth dilution method; format: functional; details: isolate 470/11, 18 h
Staphylococcus aureus [36] = assay: Bactericidal activity against Staphylococcus aureus […] after 24 hrs; format: functional; details: read-out: MBC99.9
[37] = test system: Staphylococcus epidermidis; assay: Antimicrobial activity against methicillin-resistant Staphylococcus epidermidis isolate 407/10 after 18 hrs by twofold serial broth dilution method; format: functional; details: isolate 407/10, 18 h
Bacillus subtilis [38] = assay: Genotoxicity in rec-positive Bacillus subtilis H17 at 2 ug/9 mm disc after 24 hrs by disc diffusion method; format: toxicity, organism-based
[39] = test system: Staphylococcus epidermidis; assay: Bactericidal activity against methicillin-resistant Staphylococcus epidermidis isolate 422/10 after 24 hrs; format: functional; details: isolate 422/10, 24 h, read-out: MBC99.9
[40] = test system: Staphylococcus epidermidis; assay: Antimicrobial activity against methicillin-resistant Staphylococcus epidermidis isolate 404/10 after 18 hrs by twofold serial broth dilution method; format: functional; details: isolate 404/10, 18 h
Pseudomonas aeruginosa [41] = assay: Bactericidal activity against Pseudomonas aeruginosa ATCC 27853 after 24 hrs; format: functional; details: ATCC 27853, 24 h, read-out: MBC99.9
Staphylococcus aureus [42] = assay: Antimicrobial activity against Staphylococcus aureus […] after 18 hrs by twofold serial broth dilution method; format: functional

CC[C@@H](C(=O)[C@@H](C)[C@@H](O)[C@H](C)[C@@H]1O[C@@H]([C@@H](CC)C(=O)N(CCO)CCO)CC[C@@H]1C)[C@H]1O[C@]2(C=C[C@@H](O)[C@]3(CC[C@@](C)([C@H]4CC[C@](O)(CC)[C@H](C)O4)O3)O2)[C@H](C)C[C@@H]1C was tested, and the MIC [1] was 2 µg/mL (≈ 2.39 µM), the MBC (Escherichia coli [2]) was > 256 µg/mL and the MBC [3] was 256 µg/mL (≈ 305 µM). For the same compound, the MBC [4] was 128 µg/mL (≈ 153 µM), the MIC (Pseudomonas aeruginosa [5]) was > 256 µg/mL and the MIC [6] was 4 µg/mL (≈ 4.77 µM). For the same compound, the MIC (Bacillus anthracis) was 2 µg/mL (≈ 2.39 µM), the MBC (Staphylococcus aureus [7]) was 256 µg/mL (≈ 305 µM) and the MBC (Staphylococcus aureus [8]) was 256 µg/mL (≈ 305 µM). For the same compound, the MBC (Escherichia coli [9]) was > 256 µg/mL, the MIC [10] was 2 µg/mL (≈ 2.39 µM) and the MBC (Pseudomonas aeruginosa [11]) was > 256 µg/mL. For the same compound, the MBC [12] was 256 µg/mL (≈ 305 µM), the MIC (Staphylococcus aureus [13]) was 4 µg/mL (≈ 4.77 µM) and the MBC (Pseudomonas aeruginosa [14]) was > 256 µg/mL. The “diameter of the inhibition zone (DIZ)” value (Bacillus subtilis [15]) was 29 mm, the MBC [16] was 256 µg/mL (≈ 305 µM) and the MBC [17] was 128 µg/mL (≈ 153 µM). It also gave an MBC (Staphylococcus aureus [18]) of 256 µg/mL (≈ 305 µM), an MBC [19] of 128 µg/mL (≈ 153 µM) and an MBC [20] of 128 µg/mL (≈ 153 µM). For the same compound, the MIC [21] was 4 µg/mL (≈ 4.77 µM), the MIC [22] was 4 µg/mL (≈ 4.77 µM) and the MIC [23] was 4 µg/mL (≈ 4.77 µM). For the same compound, the MIC (Escherichia coli [24]) was > 256 µg/mL, the MIC (Pseudomonas aeruginosa [25]) was > 256 µg/mL and the MIC [26] was 8 µg/mL (≈ 9.55 µM). For the same compound, the MBC [27] was 128 µg/mL (≈ 153 µM), the MIC (Escherichia coli [28]) was > 256 µg/mL and the MBC [29] was 256 µg/mL (≈ 305 µM). For the same compound, the MIC [30] was 4 µg/mL (≈ 4.77 µM), the MIC (Staphylococcus aureus [31]) was 4 µg/mL (≈ 4.77 µM) and the MIC [32] was 4 µg/mL (≈ 4.77 µM). The MBC [33] was 256 µg/mL (≈ 305 µM), the MBC [34] was 128 µg/mL (≈ 153 µM) and the MIC [35] was 4 µg/mL (≈ 4.77 µM). The MBC (Staphylococcus aureus [36]) was 128 µg/mL (≈ 153 µM), the MIC [37] was 4 µg/mL (≈ 4.77 µM) and the “diameter of the inhibition zone (DIZ)” value (Bacillus subtilis [38]) was 28 mm. For the same compound, the MBC [39] was 128 µg/mL (≈ 153 µM), the MIC [40] was 4 µg/mL (≈ 4.77 µM) and the MBC (Pseudomonas aeruginosa [41]) was > 256 µg/mL. The MIC (Staphylococcus aureus [42]) was 4 µg/mL (≈ 4.77 µM).
